Assay results from the CheMixHub ionic liquid set.

Test: xn = mol fraction of the nth substance listed

CCCC[n+]1ccn(C)c1.COP(=O)([O-])OC + CO
viscosity [mPa·s], 101 kPa
Conditions	293.15 K	308.15 K	313.15 K	318.15 K
x2 = 0.404	–	68.7	–	44.37
x2 = 0.8	7.184	–	4.401	–

CCCCCC[n+]1ccc(C)cc1.[Br-] + CO/N=C(\C(=O)N[C@@H]1C(=O)N2C(C(=O)[O-])=C(CSc3nc(=O)c(=O)[n-]n3C)CS[C@H]12)c1csc(N)n1.[Na+].[Na+] + O
viscosity [mPa·s], 100 kPa
Conditions	288.15 K	293.15 K	298.15 K	303.15 K	308.15 K
x2 = 0, x1 = 0.0007045	1.172	1.028	0.913	0.817	0.738
x2 = 0, x1 = 0.001062	1.183	1.039	0.924	0.824	0.746
x2 = 0, x1 = 0.001422	1.195	1.05	0.934	0.834	0.753
x2 = 0.00034, x1 = 0.0007042	1.221	1.065	0.947	0.847	0.764
x2 = 0.0008651, x1 = 0.0007039	1.316	1.152	1.019	0.911	0.818
x2 = 0.0008655, x1 = 0.001061	1.322	1.159	1.029	0.917	0.826
x2 = 0.0008696, x1 = 0.001421	1.338	1.172	1.038	0.923	0.831
x2 = 0.001399, x1 = 0.0007035	1.412	1.233	1.092	0.974	0.875
x2 = 0.001401, x1 = 0.00142	1.432	1.255	1.116	0.991	0.888
x2 = 0.001409, x1 = 0.00106	1.418	1.244	1.1	0.98	0.881
x2 = 0.001955, x1 = 0.001419	1.545	1.353	1.2	1.062	0.951
x2 = 0.001966, x1 = 0.0007031	1.521	1.329	1.178	1.047	0.938
x2 = 0.00197, x1 = 0.00106	1.534	1.34	1.184	1.054	0.946
x2 = 0.00252, x1 = 0.0007027	1.641	1.432	1.264	1.125	1.01
x2 = 0.002559, x1 = 0.001419	1.685	1.47	1.302	1.143	1.03
x2 = 0.003119, x1 = 0.0007023	1.784	1.555	1.369	1.216	1.088
x2 = 0.003144, x1 = 0.001058	1.807	1.572	1.398	1.231	1.098
x2 = 0.003161, x1 = 0.001418	1.832	1.592	1.412	1.242	1.112
x2 = 0.003971, x1 = 0.0007017	2.011	1.751	1.539	1.363	1.216
x2 = 0.003978, x1 = 0.001417	2.065	1.788	1.585	1.387	1.243
x2 = 0.004835, x1 = 0.0007011	2.288	1.987	1.737	1.534	1.365
x2 = 0.004866, x1 = 0.001415	2.36	2.033	1.798	1.567	1.394
x2 = 0.00487, x1 = 0.001057	2.329	2.011	1.772	1.556	1.379
x2 = 0.005535, x1 = 0.0007006	2.55	2.197	1.919	1.69	1.499
x2 = 0.005568, x1 = 0.001056	2.58	2.228	1.956	1.716	1.513
x2 = 0.00558, x1 = 0.001414	2.61	2.251	1.984	1.726	1.534

O=C1CCCO1 + COCCn1cc[n+](C)c1.N#C[S-]
Conditions	viscosity [mPa·s]
313.15 K, 101 kPa, x2 = 0	1.38

CCCC[n+]1ccn(C)c1.O=S(=O)([O-])C(F)(F)F + c1ccccc1
100 kPa
Conditions	viscosity [mPa·s]
298.15 K, x2 = 0	88
298.15 K, x2 = 0.122	64.3
298.15 K, x2 = 0.573	12.62
308.15 K, x2 = 0.122	42.2
308.15 K, x2 = 0.304	25.4
318.15 K, x2 = 0.467	10.64
318.15 K, x2 = 0.573	7.22
328.15 K, x2 = 0.304	13.62
328.15 K, x2 = 0.467	8.2

CCCCCCCC[n+]1ccn(C)c1.F[P-](F)(F)(F)(F)F + CN(C)C=O
viscosity [mPa·s], 101 kPa
Conditions	293.15 K	303.15 K	313.15 K	323.15 K	333.15 K	343.15 K	353.15 K	363.15 K
x1 = 0.002835	0.969	0.865	0.776	0.705	0.644	0.591	0.546	0.505
x1 = 0.00569	0.994	0.887	0.798	0.723	0.659	0.604	0.556	0.514
x1 = 0.01089	1.044	0.929	0.838	0.754	0.686	0.628	0.578	0.533
x1 = 0.01648	1.097	0.973	0.879	0.786	0.714	0.652	0.599	0.552
x1 = 0.02114	1.144	1.013	0.916	0.815	0.739	0.674	0.617	0.569
x1 = 0.02677	1.201	1.059	0.961	0.848	0.768	0.699	0.639	0.588

C1CCC2=NCCCN2CC1 + O=S(=O)([N-]S(=O)(=O)C(F)(F)F)C(F)(F)F.[Li+]
101 kPa, frequency 0 MHz, x1 = 0.8
Conditions	electrical conductivity [S/m]
328.15 K	0.00259
338.15 K	0.00474
348.15 K	0.0114

101 kPa, x1 = 0.8
Conditions	viscosity [mPa·s]
328.15 K	3336
348.15 K	358

O=C[C@H](O)[C@@H](O)[C@H](O)[C@H](O)CO + Cn1cc[n+](CCC[n+]2ccn(C)c2)c1.[Br-].[Br-] + O
101 kPa, x2 = 0, x1 = 0.001799
Conditions	viscosity [mPa·s]
293.15 K	1.043
298.15 K	0.927
303.15 K	0.83
308.15 K	0.754
313.15 K	0.683

CCCC[n+]1ccn(C)c1.[Cl-] + OC[C@H]1O[C@H](O[C@H]2[C@H](O)[C@@H](O)C(O)O[C@@H]2CO)[C@H](O)[C@@H](O)[C@@H]1O + O
298.15 K, 101.3 kPa
Conditions	electrical conductivity [S/m]
x2 = 0, x1 = 8.71e-06	0.00583
x2 = 0, x1 = 1.208e-05	0.00794
x2 = 0, x1 = 1.485e-05	0.00965
x2 = 0, x1 = 1.707e-05	0.01101
x2 = 0, x1 = 1.937e-05	0.01241
x2 = 0, x1 = 2.164e-05	0.0138
x2 = 0, x1 = 2.397e-05	0.0152
x2 = 0, x1 = 2.6e-05	0.0164
x2 = 0, x1 = 2.824e-05	0.0177
x2 = 0, x1 = 3.029e-05	0.019

CCCC[n+]1ccn(C)c1.COP(=O)([O-])OC + O
101 kPa
Conditions	viscosity [mPa·s]
298.15 K, x2 = 0.398	251
303.15 K, x2 = 0.201	291
303.15 K, x2 = 0.601	81.6
313.15 K, x2 = 0.799	15.81
318.15 K, x2 = 0.398	78.8
328.15 K, x2 = 0.398	49.68

O=S(=O)([N-]S(=O)(=O)C(F)(F)F)C(F)(F)F.[Na+] + O=S(=O)([N-]S(=O)(=O)C(F)(F)F)C(F)(F)F.[Li+]
100 kPa, frequency 1 MHz, x2 = 0.67
Conditions	electrical conductivity [S/m]
473.6 K	0.114
483.1 K	0.156
492.1 K	0.205
502.4 K	0.269
512.5 K	0.342
523.2 K	0.435
531.5 K	0.533
543.3 K	0.635
552 K	0.753
561.2 K	0.91
571 K	1.02

100 kPa, x2 = 0.67
Conditions	viscosity [mPa·s]
473.9 K	411
483.1 K	267
492.6 K	203
502.5 K	146
512.8 K	106
523.6 K	78.1
531.9 K	60.7
543.5 K	46.8
552.5 K	36.2
561.8 K	29.1

CCCCCC[n+]1ccn(C)c1.O=S(=O)([O-])C(F)(F)F + CC(C)O
100 kPa
Conditions	viscosity [mPa·s]
293.15 K, x2 = 0.9231	3.79
298.15 K, x2 = 0.1282	99
298.15 K, x2 = 0.2454	67.9
298.15 K, x2 = 0.469	31.4
303.15 K, x2 = 0.3506	41.2
313.15 K, x2 = 0.9231	2.08

CC(=O)[O-].CC[NH3+] + O
298.15 K, 101 kPa
Conditions	electrical conductivity [S/m]
x2 = 0.6519	1.55
x2 = 0.8802	2.91
x2 = 0.9004	3.01
x2 = 0.91	3.05
x2 = 0.93	3.06

F[P-](F)(F)(F)(F)F.[Li+] + CC[n+]1ccn(C)c1.O=S(=O)([N-]S(=O)(=O)C(F)(F)F)C(F)(F)F
electrical conductivity [S/m], 101 kPa
Conditions	x2 = 0.7088	x2 = 0.729	x2 = 0.8022	x2 = 0.8765	x2 = 0.9623
288.15 K	–	0.124	0.208	0.431	0.52
298.15 K	0.195	0.222	0.355	0.651	0.775
333.15 K	0.816	0.865	1.17	1.72	1.95

CCCCCCCCn1cc[n+](C)c1.F[B-](F)(F)F + CCOC(C)=O
298.15 K, 101 kPa
Conditions	viscosity [mPa·s]
x2 = 0.204	115.5
x2 = 0.3986	41.35
x2 = 0.4461	31.64
x2 = 0.5984	12.72
x2 = 0.624	10.93
x2 = 0.8017	3.1
x2 = 0.953	0.74

ClC(Cl)Cl + CCCC[n+]1ccn(C)c1.F[B-](F)(F)F
298.15 K, 101 kPa
Conditions	electrical conductivity [S/m]	viscosity [mPa·s]
x1 = 0.1079	0.245	92
x1 = 0.2033	0.29	73
x1 = 0.3071	0.347	55.5
x1 = 0.4018	0.411	40.8
x1 = 0.5052	0.498	27.1
x1 = 0.6091	0.586	16.3
x1 = 0.7028	0.676	9.2
x1 = 0.7825	0.668	5.01
x1 = 0.8491	0.54	2.99

CCCC[n+]1ccn(C)c1.[Cl-] + NCCO
viscosity [mPa·s], 100 kPa
Conditions	293 K	303 K	303.1 K	313.1 K	333.2 K
x2 = 0.5	–	–	95.3	57	24.9
x2 = 0.677	62.3	37.1	–	24.1	–

CCCCCCCCCCCCCC[P+](CCCCCC)(CCCCCC)CCCCCC.O=S(=O)([N-]S(=O)(=O)C(F)(F)F)C(F)(F)F + COCCOCCOCCOCCOC
viscosity [mPa·s], 100 kPa
Conditions	278.15 K	283.15 K	288.15 K	293.15 K	298.15 K	303.15 K	313.15 K	323.15 K
x2 = 0.191	589	414	299	221	168	130	83	60
x2 = 0.366	281	207	157	121	96	77	52	–
x2 = 0.559	111	85	67	54	–	–	–	–
x2 = 0.664	64	51	–	–	–	–	–	–

CCn1cc[nH+]c1.[Cl-] + OCC(O)CO
Conditions	viscosity [mPa·s]
303.15 K, 100 kPa, x1 = 0.333	65.7

CC[N+](C)(CC)CCOC.O=S(=O)([N-]S(=O)(=O)C(F)(F)F)C(F)(F)F + CC[N+](C)(CC)CCOC.F[B-](F)(F)F
Conditions	electrical conductivity [S/m]
298.15 K, 100 kPa, x1 = 1	0.311

CCCC[n+]1ccn(C)c1.O=S(=O)([O-])C(F)(F)F + CCCCO
viscosity [mPa·s], 100 kPa
Conditions	x1 = 0.1091	x1 = 0.2147	x1 = 0.2908	x1 = 0.4008	x1 = 0.5123	x1 = 0.5928	x1 = 0.6991	x1 = 0.8056	x1 = 0.9078	x1 = 1
298.15 K	3.69	6.2	8.9	14.2	20.6	26	35.4	47.6	63	82
303.15 K	3.24	5.1	6.9	11.5	17.5	22.6	30.2	38.8	51	67
308.15 K	2.87	4.45	6	11	15.3	19.3	25.4	32	40.6	53
313.15 K	2.55	3.93	5.3	9.5	13.6	16.9	21.6	27.2	34.7	43.7
318.15 K	2.27	3.48	4.68	7.9	11.2	13.8	17.8	22.6	28.5	36.3
323.15 K	2.04	3.11	4.17	7.2	10.1	12.4	15.8	19.3	24.4	30.6
